Results as given in patent publication US6500849B1, “1-alkyl-, 1-alkenyl-, and 1-alkynylaryl-2-amino 1,3-propanediols and related compounds” (Aventis Pharmaceuticals Inc., priority 1990, dated 2002).
In brackets after ≈: the same amount, converted by molar mass. Read-outs that look alike come from different tables or passages of the source.

Columns and labels:
Propionibact. acnes = assay: Anerobic antibacterial assay (agar dilution, Wilkins-Chalgren agar); type: cell-based; settings: 48 h, read-out: Antibacterial activity (MIC, mg/l)
Bact. distasonis = assay: as above; type: cell-based; settings: Parabacteroides distasonis, 48 h, read-out: Antibacterial activity (MIC, mg/l)
Spaeroph. freundii = assay: as above; type: cell-based; settings: 48 h, read-out: Antibacterial activity (MIC, mg/l)
Strept. faecium = assay: Aerobic antibacterial assay (agar dilution, Mueller-Hinton agar); settings: Enterococcus faecium, 24 h, read-out: Antibacterial activity (MIC, mg/l)
Peptostr. anaerobius = assay: Anerobic antibacterial assay (agar dilution, Wilkins-Chalgren agar); type: cell-based; settings: 48 h, read-out: Antibacterial activity (MIC, mg/l)
E. cloacae = assay: Aerobic antibacterial assay (agar dilution, Mueller-Hinton agar); settings: Enterobacter cloacae, 24 h, read-out: Antibacterial activity (MIC, mg/l)
Bact. ovatus = assay: Anerobic antibacterial assay (agar dilution, Wilkins-Chalgren agar); type: cell-based; settings: Bacteroides ovatus; Bact. ovatus 103; anaerobic; 48 hours at 37° C.; read-out: Antibacterial activity (MIC, mg/l)
Clost. tetani = assay: as above; type: cell-based; settings: Clostridium tetani, 48 h, read-out: Antibacterial activity (MIC, mg/l)
S. typhimurium = assay: Aerobic antibacterial assay (agar dilution, Mueller-Hinton agar); settings: Salmonella enterica, TYPHIMURIUM, 24 h, read-out: Antibacterial activity (MIC, mg/l)
Clost. perfringens = assay: microbe, parasite or virus in culture; type: cell-based; settings: Clostridium perfringens, 48 h, read-out: Antibacterial activity (MIC, mg/l)
Staph. aureus = assay: Aerobic antibacterial assay (agar dilution, Mueller-Hinton agar); settings: Staphylococcus aureus, 24 h
Bact. thetaiotaom. = assay: Anerobic antibacterial assay (agar dilution, Wilkins-Chalgren agar); type: cell-based; settings: anaerobic, 48 hours at 37° C.
Candida Albicans = assay: Antifungal assay (microtitration technique); type: cell-based; settings: 120 h; Candida Albicans strain 200/175; 5 days at 30° C.
Method: (§1) The microtiter plate is prepared as follows: The wells are each filled (2 rows/strain) with 50 μl neopeptone-dextrose broth (12-channel pipette). In addition, one row/strain is coated with 50 μl yeast-nitrogen base/well for yeasts and moulds. […] All wells are then inoculated with 150 μl standardized organism suspension (yeasts: 1×10^3 organisms/ml suspension; cutaneous fungi and moulds: 1.6×10^5 organisms/ml suspension); the total volume is 200 μl per well. There is also a growth control (inoculated, not medicated), a solvent control (inoculated, not medicated, containing solvent as in medicated rows) and a negative control (not inoculated, not medicated). Incubation for 5 days at 30° C. is followed by photometric evaluation. The obtained measurements are checked visually (macroscopically and microscopically) and corrected where necessary. Criteria for Evaluation of the Antimycotic Effect a. Photometric measurements (matrix method) b. Growth, macroscopic evaluation c. Growth, microscopic evaluation (inversion light microscope, magn. 64×).

Trichophyton Rubrum = assay: Antifungal assay (microtitration technique); type: cell-based; settings: 120 h; Trichophyton Rubrum strain 101/85; 5 days at 30° C.
Method: as §1

Microsporum Canis = assay: Antifungal assay (microtitration technique); type: cell-based; settings: 120 h; Microsporum Canis strain 150/353; 5 days at 30° C.
Method: as §1

[1] = system: Trichophyton Mentagrophytes; assay: Antifungal assay (microtitration technique); type: cell-based; settings: 120 h; Trichophyton Mentagrophytes strain 100/25; 5 days at 30° C.
Method: as §1

Trichophyton Vaginalis = assay: Antifungal assay (microtitration technique); type: cell-based; settings: 120 h; Trichophyton Vaginalis strain 111/216; 5 days at 30° C.
Method: as §1

Aspergillus Niger = assay: Antifungal assay (microtitration technique); type: cell-based; settings: 120 h; Aspergillus Niger strain 500/284; 5 days at 30° C.
Method: as §1

Bact. fragilis = assay: Anerobic antibacterial assay (agar dilution, Wilkins-Chalgren agar); type: cell-based; settings: Bacteroides fragilis, anaerobic, 48 hours at 37° C.
E. coli = assay: Aerobic antibacterial assay (agar dilution, Mueller-Hinton agar); type: cell-based; settings: Escherichia coli, 24 h, read-out: Antibacterial activity (MIC, mg/l)
Fusobact. varium = assay: Anerobic antibacterial assay (agar dilution, Wilkins-Chalgren agar); type: cell-based; settings: 48 h, read-out: Antibacterial activity (MIC, mg/l)
Strept. pyogenes = assay: Aerobic antibacterial assay (agar dilution, Mueller-Hinton agar); settings: Streptococcus pyogenes, 24 h, read-out: Antibacterial activity (MIC, mg/l)
Klebsiella spp. = assay: as above; settings: Klebsiella, 24 h, read-out: Antibacterial activity (MIC, mg/l)
Bact. vulgatus = assay: Anerobic antibacterial assay (agar dilution, Wilkins-Chalgren agar); type: cell-based; settings: Phocaeicola vulgatus, 48 h, read-out: Antibacterial activity (MIC, mg/l)

Compound CCCCCCCCCCc1cccc(C(O)C(N)CO)n1 (stereo not drawn) [erythro-2-Amino-1-(6-Decyl-2-pyridinyl)-1,3-dihydroxypropane] has an MIC (Propionibact. acnes) of 12.5 mg/L (≈ 40.5 µM), an MIC (Bact. distasonis) of 12.5 mg/L (≈ 40.5 µM) and an MIC (Spaeroph. freundii) of 12.5 mg/L (≈ 40.5 µM). For the same compound, the MIC (Strept. faecium) was 12.5 mg/L (≈ 40.5 µM), the MIC (Peptostr. anaerobius) was 12.5 mg/L (≈ 40.5 µM) and the MIC (E. cloacae) was 12.5 mg/L (≈ 40.5 µM). It also gave an MIC (Bact. ovatus) of 6.25 mg/L (≈ 20.3 µM), an MIC (Clost. tetani) of 12.5 mg/L (≈ 40.5 µM) and an MIC (S. typhimurium) of 12.5 mg/L (≈ 40.5 µM). It also gave an MIC (Clost. perfringens) of 12.5 mg/L (≈ 40.5 µM), an MIC (Staph. aureus; read-out: Antibacterial activity (MIC, mg/l)) of 6.25 mg/L (≈ 20.3 µM) and an MIC (Staph. aureus; read-out: Antibacterial activity (MIC, mg/l), Staph. aureus 285, aerobic, 24 hours at 37° C.) of 12.5 mg/L (≈ 40.5 µM). The MIC (Staph. aureus; read-out: Antibacterial activity (MIC, mg/l), Staph. aureus SG511, aerobic, 24 hours at 37° C.) was 12.5 mg/L (≈ 40.5 µM), the MIC (Bact. thetaiotaom.; 48 h, read-out: Antibacterial activity (MIC, mg/l), Bact. thetaiotaom. 1428) was 12.5 mg/L (≈ 40.5 µM) and the MIC (Bact. thetaiotaom.; 48 h, read-out: Antibacterial activity (MIC, mg/l), Bact. thetaiotaom. 1445) was 12.5 mg/L (≈ 40.5 µM). It also gave an MIC (Bact. thetaiotaom.; Bact. thetaiotaom. 123, read-out: Antibacterial activity (MIC, mg/l)) of 6.26 mg/L (≈ 20.3 µM), an MIC (Candida Albicans) of 31.2 µg/mL (≈ 101 µM) and an MIC (Trichophyton Rubrum) of 31.2 µg/mL (≈ 101 µM). The MIC (Microsporum Canis) was 31.2 µg/mL (≈ 101 µM), the MIC [1] was 31.2 µg/mL (≈ 101 µM) and the MIC (Trichophyton Vaginalis) was 15.6 µg/mL (≈ 50.7 µM). The MIC (Aspergillus Niger) was 31.2 µg/mL (≈ 101 µM), the MIC (Bact. fragilis; 48 h, read-out: Antibacterial activity (MIC, mg/l), Bact. fragilis 312) was 12.5 mg/L (≈ 40.5 µM) and the MIC (Bact. fragilis; 48 h, read-out: Antibacterial activity (MIC, mg/l), Bact. fragilis 1313) was 12.5 mg/L (≈ 40.5 µM). For the same compound, the MIC (Bact. fragilis; 48 h, read-out: Antibacterial activity (MIC, mg/l), Bact. fragilis 17390) was 12.5 mg/L (≈ 40.5 µM), the MIC (Bact. fragilis; 48 h, read-out: Antibacterial activity (MIC, mg/l), Bact. fragilis 18125) was 12.5 mg/L (≈ 40.5 µM) and the MIC (Bact. fragilis; 48 h, read-out: Antibacterial activity (MIC, mg/l), Bact. fragilis 19016) was 12.5 mg/L (≈ 40.5 µM). For the same compound, the MIC (Bact. fragilis; Bact. fragilis 960, read-out: Antibacterial activity (MIC, mg/l)) was 6.25 mg/L (≈ 20.3 µM), the MIC (E. coli; E. coli 1507E, 24 hours at 37° C.) was 12.5 mg/L (≈ 40.5 µM) and the MIC (E. coli; E. coli DC0, 24 hours at 37° C.) was 12.5 mg/L (≈ 40.5 µM). For the same compound, the MIC (E. coli; E. coli DC2, 24 hours at 37° C.) was 6.25 mg/L (≈ 20.3 µM), the MIC (E. coli; E. coli O 78, 24 hours at 37° C.) was 12.5 mg/L (≈ 40.5 µM) and the MIC (E. coli; E. coli TEM, 24 hours at 37° C.) was 25 mg/L (≈ 81 µM). It also gave an MIC (Fusobact. varium) of 12.5 mg/L (≈ 40.5 µM), an MIC (Strept. pyogenes) of 6.25 mg/L (≈ 20.3 µM) and an MIC (Klebsiella spp.) of 12.5 mg/L (≈ 40.5 µM). It also gave an MIC (Bact. vulgatus) of 12.5 mg/L (≈ 40.5 µM).
